The results in this text go back to patent US10935552B2, “Aie luminogens for visualization and treatment of cancer” (THE HONG KONG UNIVERSITY OF SCIENCE AND TECHNOLOGY, priority 2015, dated 2021).

Assay [1] deals with HeLa cells. Description: Cell imaging under fluorescent microscope, HeLa cells. The assay is classed as cell-based, human. The conditions noted are these: 200 nM. How it is done: (§1) Cell culture: HeLa cells were cultured in the MEM containing 10% FBS and 1% antibiotics (100 units/mL penicillin and 100 µg/mL streptomycin) in a 5% CO2 humidity incubator at 37° C. COS-7, MDA-MB-231, MCF-7, and MDCK-II cells were culture in the DMEM containing 10% FBS and antibiotics (100 units/mL penicillin and 100 µg/mL streptomycin) in a 5% CO2 humidity incubator at 37° C.
(§2) Cell imaging: two different kind of cells were grown overnight on a 35 mm petri dish with a cover slip. The live cells were incubated with 200 nM of TPE-IQ-2O for 1, 5, 10, and 20 mins. In a typical experiment, 2 μL of a 10 mM stock solution of TPE-IQ-2O in DMSO was diluted to 2 mL with cell culture medium, followed by further dilution to desired concentration. The cells were imaged under a fluorescent microscope (BX41 Microscope) using the same excitation and emission filters: excitation filter=400-440 nm, dichroic mirror=455 nm, and emission filter=465 nm long pass.
Two different kinds of cells were grown overnight on a 35 mm petri dish with a cover slip. The live cells were incubated with 200 nM of TPE-IQ-20 for 20, 10, 5, and 1 mins. The Hela cells were stained by TPE-IQ-2O; the COS-7 cells were stained by TPE-IQ-2O; the Hela cells and COS-7 cells were co-cultured and stained together by TPE-IQ-2O. Condition: 200 nM (Filter: both close; Channel 5; EX: 400-440 nm; Exposure time: bright field: 1000 ms Fluorescence: 1000 ms.
Two different kinds of cells were grown overnight on a 35 mm petri dish with a cover slip. The live cells were incubated with 200 nM of TPE-IQ-2O for 10 mins. The Hela cells were stained by TPE-IQ-2O; the MDCKII cells were stained by TPE-IQ-2O; the MDA-MB-231 cells and COS-7 cells were co-cultured and stained together by TPE-IQ-2O. Condition: 200 nM 10 mins (Filter: both close; Channel 5; EX: 400-440 nm; Exposure time: bright field: 1000 ms Fluorescence: 1000 ms.
(§3) HepG2 cells (human hepatocarcinoma cell line), PC-9 cells (human lung adenocarcinoma cell line), Hela cells (human cervical carcinoma cell line), and LX2 cells (normal cell, human hepatic stellate cell line) were stained with 200 nM DPA-IQ for 10 min. Images were taken under the same equipment settings. Scale bar: 30 μm. Excitation wavelength: 400-440 nm.

Assay [2] has as its system MCF-7 cells. As to the kind of experiment: Cell imaging under fluorescent microscope, MCF-7 cells. The conditions noted are these: 200 nM. The assay is classed as cell-based. How it is done: as §1, §2
Two different kinds of cells were grown overnight on a 35 mm petri dish with a cover slip. The live cells were incubated with 200 nM of TPE-IQ-2O for 20, 10, and 5 mins. […] Condition: 200 nM (Filter: both close; Channel 5; EX: 400-440 nm; Exposure time: bright field: 1000 ms Fluorescence: 1000 ms.

Assay [3] concerns MDA-MB-231 cells. As to the kind of experiment: Cell imaging under fluorescent microscope, MDA-MB-231 cells. The assay is classed as cell-based. The conditions noted are these: 200 nM. Here is the method:
as §1, §2
Two different kinds of cells were grown overnight on a 35 mm petri dish with a cover slip. The live cells were incubated with 200 nM of TPE-IQ-2O for 20, 10, 5, and 1 mins. […] Condition: 200 nM (Filter: both close; Channel 5; EX: 400-440 nm; Exposure time: bright field: 1000 ms Fluorescence: 1000 ms.

Assay [4] has as its system HCC827 cells. Description: Cell imaging, HCC827 cells. The assay is classed as cell-based. The conditions noted are these: HCC827, 200 nM, 20 and 10 mins. Here is the method:
The PC-9, HepG2, and HCC827 cells were grown overnight on a 35 mm petri dish with a cover slip. The live cells were incubated with 200 nM of TPE-IQ-2O for 20 and 10 mins. In all the experiments, the cancer cells are fluorescent in solely staining.

Assay [5] relates to LX2 cells. Description: Cell imaging, LX2 normal cells. It counts as cell-based, human. The conditions noted are these: LX2, 200 nM, 20 and 10 mins. How it is done: The LX2 cells were grown overnight on a 35 mm petri dish with a cover slip. The live cells were incubated with 200 nM of TPE-IQ-2O for 20 and 10 mins.
as §3

Assay [6] has as its system mitochondria. As to the kind of experiment: Co-staining with commercial organelle trackers in HeLa cells (mitochondria staining). It counts as cell-based, human. The conditions noted are these: HeLa, 200 nM with Mito-tracker red/Lyso-tracker red/DAPI, 20 mins. Here is the method: The HeLa cells were grown overnight on a 35 mm petri dish with a cover slip. Then the HeLa cells were stained with 200 nM TPE-IQ-2O and Mito-tracker red (50 nM)/Lyso-tracker red (50 nM)/DAPI (500 nM) for 20 mins.
The DMSO solution of DPA-IQ was almost non-emissive while the aggregation state powder of this material emits strong green luminescence upon the UV excitation.
The commercially available MitoTracker Red FM is co-stained as a control together with Naph-IQ.

As to `CCC[n+]1cc2ccc(C(=C(c3ccc(OC)cc3)c3ccc(OC)cc3)c3ccccc3)cc2c(-c2ccccc2)c1-c1ccccc1` [TPE-IQ-2O, 6-(2,2-bis(4-methoxyphenyl)-1-phenylvinyl)-3,4-diphenyl-2-propylisoquinolin-2-ium], the Fluorescence in co-culture entry in assay [1] (HeLa and COS-7 co-cultured and stained together) is listed as “fluorescence only from the Hela cancer cell”; in assay [1] (HeLa and MDCK-II grown in the same environment, 10 mins), “fluorescence only from the Hela cancer cell”; in assay [2] (MCF-7 and COS-7 co-cultured and stained together), “fluorescence only from the MCF-7 cancer cell”; in assay [3] (MDA-MB-231 and COS-7 co-cultured and stained together), “fluorescence only from the MDA-MB-231 cancer cell”. The “Fluorescence of stained cells” value in assay [1] (HeLa stained alone, 1-20 min) is listed as “fluorescent”; in assay [2] (MCF-7 stained alone, 5-20 min), “fluorescent”; in assay [3] (MDA-MB-231 stained alone, 1-20 min), “fluorescent”; in assay [4], “fluorescent”; in assay [5], “no obvious fluorescence”. Further, the Organelle selectivity entry in assay [6] is on record as “can selectively target the mitochondria”.
